{"source": "patent US8022036B2", "about": "“Use of thymosin alpha 1 for the treatment of immunological diseases” (Sigma-Tau Industrie Farmaceutiche Riunite S.p.A., priority 2006, dated 2011)", "key": {"[1]": {"tested_on": "GM-DCs or FL-DCs", "experiment": "Cytokine production and T cell priming by human DCs (ELISA)", "format": "cell-based", "from_the_text": "(§1) GM-DCs or FL-DCs were obtained from purified CD14+ monocytes from healthy donors or transplanted patients (1 month post-HSCT) cultured in Iscove's modified medium for 7-9 days, in the presence of rGM-CSF (Schering-Plough, Milan, Italy) and rIL-4 (Peprotech, Inalco, Milan, Italy) or FLT3-L (Immunex Corporation, Seattle, Wash.) (Blood. 2004; 103:4232-4239). DC recovery was between 20-30% reduced in cultures from transplanted patients. Murine GM-DCs or FL-DCs were obtained from bone marrow cells for 7-9 days, as described (Blood. 2004; 103:4232-4239). Thymosin alpha 1 and sThymosin alpha 1 were added to the cultures at 20 ng/mL. DCs (>99% CD11c+ consisting of 90-95% CD8-, 5-10% CD8+, and 1-5% B220+ cells) were purified from spleens (spDCs) by magnetic-activated sorting using CD11c MicroBeads and MidiMacs (Miltenyi Biotech). DC populations were further separated into CD8−, CD8+ and B220+ fractions by means of CD8 or B220 MicroBeads (Miltenyi Biotech). DCs were pulsed in serum-free Iscove medium for 24 hours with live unopsonized Aspergillus conidia or Zymosan from Saccharomyces cerevisiae (Sigma) or CpG-ODN 2006 as described.7 Phagocytosis was done as described (Blood. 2004; 103:4232-4239). Photographs were taken using a high Resolution Microscopy Color Camera AxioCam, using the AxioVision Software Rel. 3.1 (Carl Zeiss, Milan, Italy).\n(§2) Cytokine content was assessed by enzyme-linked immunosorbent assays (Endogen Human Elisa Kits, R&D Systems and Euroclone, Milan, Italy). AID EliSpot assay kits (Amplimedical, Buttigliera Alta, Turin, Italy) were used on purified splenic CD4+ Tcells cocultured with conidia-pulsed DCs for 5 days to enumerate cytokine-producing cells (Blood. 2003; 102:3807-3814). 1-MT was used at 2 μM.\n(C) Cytokine production (pg/mL by ELISA) by Thymosin alpha 1-induced DCs from healthy donors cultured in serum-free medium (1×10^6 cells/mL) with unopsonized Aspergillus conidia (5×10^5/mL) or 10 μg/mL Zymosan or 2 μg/mL CpG-B ODN 2006 for 24 hours. The data shown are aggregated results from three independent experiments and presented in the mean±SD. […]"}, "[2]": {"tested_on": "GM-DCs or FL-DCs", "experiment": "Cytokine production (ELISA) by murine GM-DCs or FL-DCs with Aspergillus conidia", "format": "cell-based, mouse", "from_the_text": "as §1, §2\n(B) Cytokine production (ELISA) by GM-DCs or FL-DCs cultured in serum-free medium (1×10^6 cells/mL) with unopsonized Aspergillus conidia (5×10^5/mL) for 24 hours. The IDO inhibitor 1-MT was added at 2 μM. Data are aggregated results from three independent experiments. The detection limits (pg/mL) of the assays were <16 for IL-12p70 and <12 for IL-10."}, "[3]": {"tested_on": "CD4+ T cell clones", "experiment": "Aspergillus-specific or alloreactive human T cell clones responding to DCs", "format": "cell-based", "conditions": "healthy donors or transplanted patients", "experimental": "Aspergillus-specific human CD4+ T cell clones were generated from peripheral blood CD4+CD45RA+ T cells added at limiting dilution concentrations to irradiated (20 Gy) feeder autologous peripheral blood cells and stimulated with conidia-pulsed DCs or allogeneic DCs (Blood. 2005; 106:4397-4406). Growing clones were assessed for specificity against fungus-pulsed DCs, allogeneic DCs, autologous irradiated cells (as a negative control) and 0.5% phytohemoagglutinin (as a positive control) by H^3-thymidine (Amersham Biosciences, Little Chalfont, UK) labeling or cytokine content in supernatants 2 days later (Blood. 2005; 106:4397-4406).\n(E) Frequency of Aspergillus-specific or alloreactive T cell clones responding to the different types of fungus-pulsed DCs or unpulsed DCs, respectively, from healthy donors or transplanted patients. Growing clones were assessed for specificity after 2 days of stimulation with DCs. (*) p<0.05, GM-DCs versus peripheral blood cells (−). (**) P<0.05, HSCT-DCs versus all other DCs. nd, not done."}, "[4]": {"conditions": "in response to Aspergillus conidia, 24 hours"}}, "note": "No end group written: not given here.", "data": [{"substance": "Thymosin alpha 1: naturally occurring thymic peptide; supplied as purified, endotoxin-free sterile lyophilized acetylated polypeptide from SciClone Pharmaceuticals (Ac-SDAAVDTSSEITTKDLKEKKEVVEEAEN; UniProt P06454 2-29, looked up)", "values": [{"measurement": "IL-10 production by GM-DCs", "setting": "[1]; healthy donors, Aspergillus conidia, 24 hours", "result": "produced increased levels of IL-10"}, {"measurement": "IFN-a production", "setting": "[1]; in response to Aspergillus conidia, Zymosan or CpG ODN", "result": "mainly produced by FL-DCs or Thymosin alpha 1-treated GM-DCs"}, {"measurement": "priming for IL-10-producing CD4+ T cells", "setting": "[1]; in vitro, Thymosin alpha 1-treated GM-DCs", "result": "primed for IL-10-producing CD4+ T cells in vitro"}, {"measurement": "IL-10 production by cells from TLR9-/- or IFN-aβR-/- mice", "setting": "[2]; GM-DCs or FL-DCs, in response to Thymosin alpha 1", "result": "did not occur"}, {"measurement": "release of IL-10 and IL-12 by FL-DCs", "setting": "[2]; [4]", "result": "IL-10, more than IL-12"}, {"measurement": "release of IL-12 and IL-10 by GM-DCs", "setting": "[2]; [4]", "result": "induced release of IL-12 and IL-10"}, {"measurement": "ability of DCs to activate fungus- or alloantigen-specific T cell reactivity", "setting": "[3]", "result": "modified neither the antigen-specific T cell responses induced by DCs nor the allostimulatory capacity"}]}]}
